{"source": "patent US20230105212A1", "about": "“BIPHENYL DERIVATIVE INHIBITOR, PREPARATION METHOD THEREFOR AND USE THEREOF” (SHANGHAI HANSOH BIOMEDICAL CO., LTD., priority 2020, published 2023)", "target": "T1, hERG potassium channel (Homo sapiens, UniProt Q12809)", "T1 construct": "expressed in transfected cells; host or cells: CHO-hERG cells", "T1 sequence (Q12809 whole entry)": "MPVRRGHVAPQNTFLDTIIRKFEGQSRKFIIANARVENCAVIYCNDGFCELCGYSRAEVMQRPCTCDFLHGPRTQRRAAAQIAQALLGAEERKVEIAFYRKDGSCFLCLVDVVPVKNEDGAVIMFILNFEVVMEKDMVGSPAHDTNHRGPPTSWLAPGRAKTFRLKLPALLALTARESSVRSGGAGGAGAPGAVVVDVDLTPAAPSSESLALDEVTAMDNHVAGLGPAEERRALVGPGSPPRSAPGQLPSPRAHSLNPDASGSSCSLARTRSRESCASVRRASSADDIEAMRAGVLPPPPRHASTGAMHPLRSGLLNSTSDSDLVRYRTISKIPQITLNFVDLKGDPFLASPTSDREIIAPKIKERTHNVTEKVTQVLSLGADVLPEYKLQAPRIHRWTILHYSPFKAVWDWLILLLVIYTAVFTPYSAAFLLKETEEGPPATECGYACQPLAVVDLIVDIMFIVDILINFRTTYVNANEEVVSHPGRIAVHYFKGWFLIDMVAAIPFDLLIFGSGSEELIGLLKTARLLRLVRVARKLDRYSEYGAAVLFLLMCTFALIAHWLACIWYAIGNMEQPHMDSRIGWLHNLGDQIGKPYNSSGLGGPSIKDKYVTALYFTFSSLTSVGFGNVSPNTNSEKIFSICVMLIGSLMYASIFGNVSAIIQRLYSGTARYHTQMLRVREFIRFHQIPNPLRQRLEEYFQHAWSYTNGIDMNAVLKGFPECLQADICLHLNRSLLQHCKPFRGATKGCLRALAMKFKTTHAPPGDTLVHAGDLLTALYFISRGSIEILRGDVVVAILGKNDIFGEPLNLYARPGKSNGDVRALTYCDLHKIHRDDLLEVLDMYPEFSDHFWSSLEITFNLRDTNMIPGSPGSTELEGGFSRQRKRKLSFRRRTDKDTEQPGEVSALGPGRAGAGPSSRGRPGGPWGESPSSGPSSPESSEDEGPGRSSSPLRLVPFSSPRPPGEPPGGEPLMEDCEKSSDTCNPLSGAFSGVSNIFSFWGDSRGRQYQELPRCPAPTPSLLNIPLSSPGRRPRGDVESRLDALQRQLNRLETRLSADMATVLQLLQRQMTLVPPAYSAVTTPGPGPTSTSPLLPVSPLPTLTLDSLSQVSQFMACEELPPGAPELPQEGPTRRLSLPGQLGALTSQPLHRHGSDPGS", "assay": "Inhibitory activity test of hERG potassium channel (Qpatch, CHO-hERG cells)", "format": "cell-based", "settings": "6 concentrations up to 40 μM", "method": "Test Embodiment 9. Inhibitory Activity Test of hERG Potassium Channel\n1.1 CHO-hERG cells were cultured in a 175 cm^2 culture flask. When the cell density reached 60 to 80%, the culture medium was removed, washed with 7 mL of PBS, and then digested with 3 mL of Detachin.\n1.2 After the digestion was completed, 7 mL of culture medium was added to neutralize, then centrifuged, and the supernatant was aspirated, and 5 mL of culture medium was added to resuspend to ensure the cell density was 2 to 5×10^6/mL.\nSingle-cell high-impedance sealing and whole-cell pattern formation were all performed automatically by the Qpatch instrument. After the whole-cell recording pattern was obtained, the cell was clamped at −80 mV, before a +40 mV depolarizing stimulus for 5 s was given, a pre-voltage of −50 mV for 50 ms was given, then repolarized to −50 mV for 5 s, and then returned to −80 mV. This voltage stimulus was applied every 15 seconds, and recorded for 2 minutes, then the extracellular solution was given and then recorded for 5 minutes. Then the dosing process was started. The compound concentration started from the lowest test concentration, and each test concentration was administered for 2.5 minutes. After all concentrations were continuously administered, the positive control compound 3 μM Cisapride was administered. […]\nThe experimental data was analyzed by XLFit software.", "note": "pIC50: −log10 of the molar value."}
{"smiles": "COc1nc(-c2cccc(-c3cccc(NC(=O)c4nc5c(n4C)CCN(C)C5)c3Cl)c2Cl)ncc1CN1CC(CO)C1", "note": "[Embodiment 223, N-(2,2′-Dichloro-3′-(5-((3-(hydroxymethyl)azetidin-1-yl)methyl)-4-methoxypyrimidin-2-yl)-[1,1′-biphenyl]-3-yl)-1,5-dimethyl-4,5,6,7-tetrahydro-1H-imidazo[4,5-c]pyridine-2-carboxamide]", "values": [{"measurement": "pIC50", "value": 4.83}]}
